In the supplement of paper PMC10307832:

What follows are cell lines tested with O=C(/C=C/c1ccccc1)NC(NC(=S)Nc1cccc2cccnc12)C(Cl)(Cl)Cl [Salubrinal] + O=C(CCCCCCC(=O)Nc1ccccc1)NO [Vorinostat] (partner 1 µM) (assay: relative viability (nuclei count vs DMSO), 5 days (fraction); higher = more cells survive). Details: first compound 8 µM.
Procedure, shortened: (§1)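 Lung cancer cell lines were pin-tool dosed in 1536-well plates on the day after seeding, with either a lone drug or a fixed anchor-drug dose plus five library-drug doses (not always all listed) in √10 steps. Nuclei were counted on 4× images after 5 days. Relative viability is the ratio of treated-well to vehicle-well nuclei counts, with each value a median of duplicate plates.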
In the case of NCI-H2405, the relative viability is reported as 0.99.
For HCC-44, the relative viability was 1.04.
SK-MES-1 showed a relative viability of 0.936.
In the case of SW 900, the relative viability is reported as 0.804.
With NCI-H1395 the relative viability was 0.558.
Work on NCI-H1648 yielded a relative viability of 0.242.
For ABC-1, the relative viability was 1.11.
Cell Line NCI-H1944 has a relative viability of 0.645.

Each cell line was assayed with O=C(/C=C/c1ccccc1)NC(NC(=S)Nc1cccc2cccnc12)C(Cl)(Cl)Cl [Salubrinal] + Cc1nc(Nc2ncc(C(=O)Nc3c(C)cccc3Cl)s2)cc(N2CCN(CCO)CC2)n1 [Dasatinib] (partner 0.075 µM) in the same assay as above. Details: first compound 0.08 µM.
Procedure, shortened: as §1
NCI-H522 was tested, and the relative viability was 0.988.
Work on NCI-H2342 yielded a relative viability of 0.304.
Work on NCI-H727 yielded a relative viability of 0.311.
NCI-H1650 gave a relative viability of 0.366.
For NCI-H1993, the relative viability was 0.602.
With SW 1573 the relative viability was 0.553.
Cell Line NCI-H838 has a relative viability of 0.304.
With LCLC-103H the relative viability was 0.501.
For NCI-H520, the relative viability was 0.252.
Work on NCI-H2126 yielded a relative viability of 0.66.
In the case of EMC-BAC-2, the relative viability is reported as 0.305.
For NCI-H2085, the relative viability was 0.228.
For HCC-366, the relative viability was 0.813.
NCI-H1666 showed a relative viability of 0.845.
In the case of NCI-H596, the relative viability is reported as 0.633.
In the case of LK-2, the relative viability is reported as 0.378.
NCI-H2087 was tested, and the relative viability was 0.954.
NCI-H358 gave a relative viability of 0.173.
With NCI-H2170 the relative viability was 0.764.
Work on H3255 yielded a relative viability of 0.291.
COR-L23 gave a relative viability of 0.522.
COR-L 105 showed a relative viability of 0.365.
LOU-NH91 gave a relative viability of 0.565.
In the case of ChaGo-K-1, the relative viability is reported as 0.685.
Cell Line NCI-H1793 has a relative viability of 0.448.
With NCI-H2405 the relative viability was 0.252.
Cell Line SK-MES-1 has a relative viability of 0.428.
SW 900 showed a relative viability of 1.09.
NCI-H1395 showed a relative viability of 0.409.
For NCI-H1792, the relative viability was 0.822.
In the case of NCI-H1623, the relative viability is reported as 0.475.
With NCI-H1563 the relative viability was 0.446.
ABC-1 was tested, and the relative viability was 0.54.
With NCI-H1944 the relative viability was 0.233.

Same assay, conditions: first compound 0.253 µM
Work on NCI-H522 yielded a relative viability of 0.976.
NCI-H2342 showed a relative viability of 0.278.
With NCI-H727 the relative viability was 0.38.
Cell Line NCI-H1650 has a relative viability of 0.35.
Cell Line NCI-H1993 has a relative viability of 0.573.
SW 1573 gave a relative viability of 0.488.
NCI-H838 gave a relative viability of 0.288.
LCLC-103H showed a relative viability of 0.35.
With NCI-H520 the relative viability was 0.236.
NCI-H2126 gave a relative viability of 0.554.
For EMC-BAC-2, the relative viability was 0.334.
With NCI-H2085 the relative viability was 0.227.
HCC-366 was tested, and the relative viability was 0.497.
For NCI-H1666, the relative viability was 0.721.
NCI-H596 was tested, and the relative viability was 0.509.
LK-2 was tested, and the relative viability was 0.302.
NCI-H2087 gave a relative viability of 0.62.
NCI-H358 gave a relative viability of 0.23.
NCI-H2170 showed a relative viability of 0.526.
Cell Line H3255 has a relative viability of 0.366.
COR-L23 showed a relative viability of 0.496.
In the case of COR-L 105, the relative viability is reported as 0.325.
Cell Line LOU-NH91 has a relative viability of 0.481.
In the case of ChaGo-K-1, the relative viability is reported as 0.544.
NCI-H1793 was tested, and the relative viability was 0.421.
For NCI-H2405, the relative viability was 0.223.
Cell Line SK-MES-1 has a relative viability of 0.32.
Work on NCI-H1395 yielded a relative viability of 0.443.
In the case of NCI-H1623, the relative viability is reported as 0.485.
Work on NCI-H1563 yielded a relative viability of 0.514.
ABC-1 showed a relative viability of 0.508.
Work on NCI-H1944 yielded a relative viability of 0.216.

Same assay, conditions: first compound 0.8 µM
For NCI-H522, the relative viability was 0.981.
With NCI-H2342 the relative viability was 0.305.
NCI-H727 gave a relative viability of 0.341.
In the case of NCI-H1650, the relative viability is reported as 0.321.
NCI-H1993 gave a relative viability of 0.525.
In the case of SW 1573, the relative viability is reported as 0.627.
For NCI-H838, the relative viability was 0.318.
In the case of LCLC-103H, the relative viability is reported as 0.514.
In the case of NCI-H520, the relative viability is reported as 0.292.
For NCI-H2126, the relative viability was 0.62.
With EMC-BAC-2 the relative viability was 0.359.
NCI-H2085 was tested, and the relative viability was 0.258.
HCC-366 was tested, and the relative viability was 0.777.
Cell Line NCI-H1666 has a relative viability of 0.799.
With NCI-H596 the relative viability was 0.569.
With LK-2 the relative viability was 0.296.
NCI-H2087 showed a relative viability of 1.15.
For NCI-H358, the relative viability was 0.154.
Work on NCI-H2170 yielded a relative viability of 0.71.
Cell Line H3255 has a relative viability of 0.459.
COR-L23 was tested, and the relative viability was 0.645.
Work on COR-L 105 yielded a relative viability of 0.345.
LOU-NH91 gave a relative viability of 0.672.
For ChaGo-K-1, the relative viability was 0.667.
For NCI-H1793, the relative viability was 0.359.
With NCI-H2405 the relative viability was 0.224.
SK-MES-1 showed a relative viability of 0.408.
Work on SW 900 yielded a relative viability of 0.66.
NCI-H1395 gave a relative viability of 0.472.
For NCI-H1792, the relative viability was 0.723.
With NCI-H1623 the relative viability was 0.54.
NCI-H1563 showed a relative viability of 0.555.
With ABC-1 the relative viability was 0.633.
Work on NCI-H1944 yielded a relative viability of 0.205.

Same assay, conditions: first compound 2.53 µM
NCI-H522 gave a relative viability of 0.869.
In the case of NCI-H2342, the relative viability is reported as 0.298.
NCI-H727 gave a relative viability of 0.409.
NCI-H1650 was tested, and the relative viability was 0.357.
Cell Line NCI-H1993 has a relative viability of 0.506.
In the case of SW 1573, the relative viability is reported as 0.402.
NCI-H838 gave a relative viability of 0.262.
LCLC-103H showed a relative viability of 0.53.
For NCI-H520, the relative viability was 0.231.
Cell Line NCI-H2126 has a relative viability of 0.592.
Cell Line EMC-BAC-2 has a relative viability of 0.411.
NCI-H2085 gave a relative viability of 0.249.
With HCC-366 the relative viability was 0.555.
NCI-H1666 gave a relative viability of 0.806.
NCI-H596 was tested, and the relative viability was 0.633.
LK-2 was tested, and the relative viability was 0.312.
NCI-H2087 gave a relative viability of 1.01.
In the case of NCI-H358, the relative viability is reported as 0.149.
NCI-H2170 was tested, and the relative viability was 0.57.
H3255 was tested, and the relative viability was 0.35.
COR-L23 showed a relative viability of 0.53.
COR-L 105 was tested, and the relative viability was 0.317.
LOU-NH91 gave a relative viability of 0.56.
Work on ChaGo-K-1 yielded a relative viability of 0.57.
Work on NCI-H1793 yielded a relative viability of 0.385.
Work on NCI-H2405 yielded a relative viability of 0.2.
SK-MES-1 showed a relative viability of 0.371.
SW 900 showed a relative viability of 0.584.
NCI-H1395 gave a relative viability of 0.4.
With NCI-H1792 the relative viability was 0.81.
NCI-H1623 showed a relative viability of 0.514.
Work on NCI-H1563 yielded a relative viability of 0.453.
With ABC-1 the relative viability was 0.634.
With NCI-H1944 the relative viability was 0.226.

Same assay, conditions: first compound 8 µM
NCI-H522 was tested, and the relative viability was 0.972.
In the case of NCI-H2342, the relative viability is reported as 0.291.
NCI-H727 showed a relative viability of 0.375.
With NCI-H1650 the relative viability was 0.294.
In the case of NCI-H1993, the relative viability is reported as 0.503.
SW 1573 was tested, and the relative viability was 0.417.
NCI-H838 was tested, and the relative viability was 0.266.
LCLC-103H was tested, and the relative viability was 0.507.
In the case of NCI-H520, the relative viability is reported as 0.292.
NCI-H2126 showed a relative viability of 0.46.
EMC-BAC-2 was tested, and the relative viability was 0.335.
NCI-H2085 showed a relative viability of 0.246.
In the case of HCC-366, the relative viability is reported as 0.528.
With NCI-H1666 the relative viability was 0.613.
For NCI-H596, the relative viability was 0.56.
Work on LK-2 yielded a relative viability of 0.342.
Cell Line NCI-H2087 has a relative viability of 0.733.
NCI-H358 showed a relative viability of 0.145.
